According to publication PMC6080781, “ATP competes with PIP2 for binding to gelsolin” (PLoS ONE, 2018):
pKd: −log10 of the molar value.

What was measured:
[1] = Critical micelle concentration by dynamic light scattering; type: physicochemical
Procedure: tested, PIP2-F was free from micelle formation at concentrations of 0.5 µM or below, whereas […]
Methods: The critical micelle concentrations of PIP2 and 1-(1-octadecanoyl-fluorescein-2R-octadecanoylphosphatidyl)inositol-4,5-bisphosphate (Cayman Chemical, abbreviated as PIP2-F) were determined by dynamic light scattering (Huang et al., 2011). Fifty microliter samples were prepared by serial dilution of PIP2 or PIP2-F into a low salt buffer (2 mM Tris-HCl, pH 7.4), or the same buffer supplemented with 100 mM KCl, 1 mM MgCl2, and/or 1 mM CaCl2. After incubation for 30 min, the samples were centrifuged at 15,000 x g for 10 min, transferred into a 384-well clear bottom plate, and light scattering was measured using a Wyatt Dynapro plate reader at room temperature. The concentrations of PIP2-F were subsequently determined by light absorbance at 494 nm with a Nanodrop spectrophotometer. […]
Huang, W., Jiang, D., Wang, X., Wang, K., Sims, C. E., Allbritton, N. L. and Zhang, Q.

[2] = Calcium-dependent fluorescence emission of FURA-2FF; type: binding; conditions: inferred from unchanged FURA-2FF profile with 20 μM PIP2
Procedure: Supplementary file pone.0201826.s005.pdf: S5 Fig Assessment of the effects of calcium and ATP on the binding of ATP-N and PIP2-F to gelsolin. (A) Kds were calculated from the fit data with Eq 2 of gelsolin:PIP2-F binding under different calcium concentrations in the absence or presence of ATP. In the absence of ATP, PIP2-F (0.5 μM) binds to gelsolin, as reflected by thehigh affinity, across a wide range of calcium concentrations. […] (B) In the absence of gelsolin, calcium directly precipitates ATP-N (C, open triangles) with a half-maximum value of 70.4 ± 0.7 μM. Magnesium has no effect on the fluorescence emission of ATP-N either in the absence (M, orange circles) or presence of 10 μM calcium (MC, purple squares). Data were fitted with simple sigmoidal curves. (C) The reported FURA-2FF dissociation constant for calcium ions is 25 μM (A.G. Scientific Inc.). The calcium-dependent fluorescence emission profile of FURA-2FF (2 μM) over pCa range of 5–7 was similar in the presence and absence of 20 μM PIP2, which were fitted with simple sigmoidal curves. […] The measurement was carried out with a Perkin Elmer LS-55 spectrofluorimeter (λex = 340 nm, λem = 505 nm). (PDF) Click here for additional data file.

gelsolin [3] = molecular target: T1, gelsolin (Homo sapiens, UniProt P06396); assay: Steady-state fluorescence anisotropy of PIP2-F binding to gelsolin; conditions: 5 μM gelsolin
T1 construct: His tag (cleaved yes); made in house; host or cells: E. coli Rosetta2 (DE3) pLysS, pSY5 plasmid
T1 sequence (P06396 28-782): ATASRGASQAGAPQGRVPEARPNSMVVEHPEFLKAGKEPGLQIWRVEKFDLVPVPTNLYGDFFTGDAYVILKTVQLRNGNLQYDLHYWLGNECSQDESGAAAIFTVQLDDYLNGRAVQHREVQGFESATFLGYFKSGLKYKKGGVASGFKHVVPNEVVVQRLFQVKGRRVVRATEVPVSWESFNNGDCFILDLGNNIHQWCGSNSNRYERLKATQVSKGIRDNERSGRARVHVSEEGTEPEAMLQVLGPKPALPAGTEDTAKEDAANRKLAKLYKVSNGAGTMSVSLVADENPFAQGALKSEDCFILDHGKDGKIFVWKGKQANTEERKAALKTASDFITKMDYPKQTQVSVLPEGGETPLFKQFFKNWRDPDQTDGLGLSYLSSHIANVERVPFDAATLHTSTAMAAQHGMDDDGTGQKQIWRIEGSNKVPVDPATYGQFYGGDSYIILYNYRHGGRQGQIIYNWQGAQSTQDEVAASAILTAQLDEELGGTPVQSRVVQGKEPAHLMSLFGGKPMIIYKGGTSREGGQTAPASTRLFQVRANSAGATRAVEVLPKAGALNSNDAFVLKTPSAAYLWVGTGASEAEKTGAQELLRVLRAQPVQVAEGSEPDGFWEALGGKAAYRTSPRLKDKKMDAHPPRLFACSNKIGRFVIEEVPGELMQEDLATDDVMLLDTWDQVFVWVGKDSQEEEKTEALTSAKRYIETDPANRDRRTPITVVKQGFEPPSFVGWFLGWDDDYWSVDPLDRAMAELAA
Procedure: His-tagged human wild-type gelsolin was expressed in E. coli strain Rosetta2 (DE3) pLysS cells from a pSY5 plasmid. […] Traces of calcium were removed by dialysis (2 mM Tris-HCl, 1 mM EGTA, pH 7.4, overnight). Rabbit skeletal muscle actin was prepared from acetone powder (Pel-Freez Biologicals) in a protocol modified from Spudich and Watt. Actin was stored in buffer A (2 mM Tris-HCl, 0.2 mM ATP (ATP disodium trihydrate, Sigma-Aldrich), 0.1 mM CaCl2 (pCa 4), 0.1 mM DTT and 0.005% NaN3, pH 7.4). Alexa Fluor^TM 488 C5 Maleimide (Life Technologies) was used to label cysteine residues of gelsolin based on the manufacturer’s recommendations (Thermo Fisher Scientific).
We used a fluorescent derivative of PIP2 (PtdIns-(4,5)-P2-fluorescein, Cayman Chemicals, NU-10010388, λex = 493 nm, λem = 520 nm, abbreviated as PIP2-F) and a fluorescent derivative of ATP (N^6-(6-amino)hexyl-ATP-ATTO-532, Jena Bioscience, NU-805-532, λex = 532 nm, λem = 553 nm, abbreviated as ATP-N) as probes for the binding of PIP2 and ATP to gelsolin. Fluorescence intensities were measured on a Safire^2 monochromator microplate reader (TECAN) at 22°C. Steady-state fluorescence anisotropy values were determined according to Eq 1 [65], where IVV and IVH, respectively, are the intensities of vertically and horizontally polarized emission on excitation with vertically polarized light, with the correction factor, G, being the ratio of IVH/IVV.
The dissociation constants for ATP and PIP2 were calculated using a hyperbolic model from anisotropy data that had reached saturation during the gelsolin titrations Eq 2: r=rf+(rb−rf)(Kd+[G]+[L]−(Kd+[G]+[L])^2−4[G][L]/2[L]) (2) where rf is the anisotropy of free ligand, rb is the anisotropy of gelsolin-bound ligand, [L] is the total concentration of ligand, Kd is the dissociation constant and [G] is the total concentration of gelsolin. The anisotropy of 0.5 μM ATP-N was measured in the presence of gelsolin concentrations: 0, 0.2, 1.5, 2, 3, 5 and 8 μM. […] The calcium and magnesium sensitivities of ATP binding to gelsolin were characterized by the change in anisotropy of solutions containing 0.5 μM ATP-N in the presence of 5 μM of gelsolin over a range of divalent cation concentrations of pCa 2–12 or pMg 1–12, where pCa and pMg refer to[…]. […] Anisotropy of 0.5 μM or 0.25 μM solutions of PIP2-F in the presence of 5 μM gelsolin was used to probe the changes in binding of the complexes under different calcium, magnesium, salt and ATP conditions.

gelsolin [4] = molecular target: T1, gelsolin; assay: Labeled/unlabeled ATP competition on gelsolin (ATP-N anisotropy); type: binding; conditions: absence of calcium
Procedure: The dissociation constants for ATP and PIP2 were calculated using a hyperbolic model from anisotropy data that had reached saturation during the gelsolin titrations Eq 2: r=rf+(rb−rf)(Kd+[G]+[L]−(Kd+[G]+[L])^2−4[G][L]/2[L]) (2) where rf is the anisotropy of free ligand, rb is the anisotropy of gelsolin-bound ligand, [L] is the total concentration of ligand, Kd is the dissociation constant and [G] is the total concentration of gelsolin. The anisotropy of 0.5 μM ATP-N was measured in the presence of gelsolin concentrations: 0, 0.2, 1.5, 2, 3, 5 and 8 μM. Saturation was evident at 5 μM characterized by an anisotropy value of 0.15 ± 0.006. […]
Supplementary file pone.0201826.s002.pdf: S2 Fig ATP binding to gelsolin under actin polymerization conditions. (A) The calcium-dependent gelsolin binding affinity for ATP under actin polymerization conditions was determined by monitoring the change in ATP-N anisotropy on gelsolin titration at different calcium ion concentrations. Each data point arises from the Kd calculated from a titration similar to Fig 1A. […] (B) The anisotropy of ATP-N (0.5 μM) bound to gelsolin (5 μM) was measured upon titrating with unlabeled ATP in the absence of calcium. […]

gelsolin [5] = molecular target: T1, gelsolin; assay: Confocal microscopy of Alexa488-labeled gelsolin on PIP2-containing phospholipid vesicles; conditions: 0.5 mM ATP, absence of divalent cations
Procedure: Phospholipid vesicles were prepared by a modified protocol from James H. Morrissey, Dept. of Biochemistry, University of Illinois at Urbana-Champaign, Urbana, IL 61801, USA (https://tf7.org). A mixture of 1% PIP2 (PtdIns-(4,5)-P2(1,2-dipalmitoyl)) (Cayman Chemicals), 79% PC (L-α-phosphatidylcholine) (Sigma-Aldrich) and 20% PS (3-sn-phosphatidyl-L-serine) (Sigma-Aldrich) was dissolved in 20 μM rhodamine 590 N-succinimidyl ester (Sigma-Aldrich) in chloroform. […]
10% (v/v) rhodamine590-filled phospholipid vesicles and 5 μM Alexa488-labeled gelsolin were incubated together and a drop of the mixture was placed on a clean glass slide, which was then covered by and separated from a second slide by a parafilm gasket. […] Fluorescence emission-based imaging was carried out using a Zeiss LSM 510 META Confocal Microscope. The two different fluorophores were detected in two separate channels; Alexa488 (gelsolin) was excited by 477 nm laser light and emission was detected in the 505–530 nm channel, while rhodamine590 (phospholipid vesicles) was excited by 545 nm laser light and emission was detected in the 585–630 nm channel.

gelsolin [6] = conditions: equilibrium dialysis, high NaCl concentrations; read-out: dissociation constant for gelsolin; cited from earlier work
calcium-free gelsolin = molecular target: calcium-free gelsolin; parameters: method as in PMID 10336615; conditions: cited from earlier work

Compound | CMC of PIP2 ([1]; 100 mM KCl and 1 mM MgCl2, nominal concentrations) | CMC of PIP2 ([1]; 100 mM KCl, nominal concentrations) | CMC of PIP2 ([1]; absence of cations, nominal concentrations) | CMC of PIP2 ([1]; calcium in the buffer, considered an overestimation) | pKd [2] | effect of ATP on PIP2-F anisotropy (gelsolin [3]; 0.5 mM ATP, 0.25 μM PIP2-F, 100 mM K+, 1 mM Mg2+, entire calcium range, absence and presence of 50 μM actin) | effect of ATP on the gelsolin/PIP2-F complex (gelsolin [3]; 0.2 or 0.5 mM ATP, 0.5 μM PIP2-F) | ATP concentration sufficient to remove the gelsolin bound ATP-N (gelsolin [4]; 0.5 μM ATP-N, 5 μM gelsolin) | pKd (gelsolin [4]; 50 mM KCl, 1 mM MgCl2 (actin polymerizing salt), competition with ATP-N) | release of gelsolin-Alexa488 from PIP2-containing vesicles (gelsolin [5]) | pKd (gelsolin [6]) | pKd (calcium-free gelsolin; Gremm and Wegner, read-out: Kd of calcium-free gelsolin for ATP) | ATP binding to gelsolin (calcium-free gelsolin; solutions with more than 10 μM Ca2+ (pCa 5))
phosphatidylinositol 4,5-bisphosphate [PIP2] | < 1 µM | 2 µM | 20 µM | ~ 10 μM | ≤ 4.60 |  |  |  |  |  |  |  | 
Nc1ncnc2c1ncn2[C@@H]1O[C@H](COP(=O)(O)OP(=O)(O)OP(=O)([O-])[O-])[C@@H](O)[C@H]1O.O.O.O.[Na+].[Na+] [ATP, ATP disodium trihydrate] |  |  |  |  |  | almost complete loss of PIP2-F anisotropy | complete dissociation of the gelsolin/PIP2-F complex | 50 µM | 5.66 | the majority of gelsolin-Alexa488 was released from the vesicles | 6.55 | 4.49 | No ATP binding to gelsolin is detectable
